Measurements: patent US12428447B2, “Peptide-based non-proteinaceous cargo delivery” (priority 2019, dated 2025)
Bridges are numbered along the chain shown (N, C = ends). Where no end group is shown, it is not given here. [ ]: non-standard residue; d: D form.

Legend:
[1] = test system: HedgeHog signalling pathway; experiment: Hedgehog pathway inhibitor delivery to Gli-luciferase reporter NIH3T3 cells (luminescence); format: cell-based, Mouse; details: for Mean luminescence intensity: inhibitor 100 μM, 90 seconds, mShh-stimulated reporter cells; for cellular luminescence intensity in the presence of FSD250D as compared to in the absence of FSD250D: +mShh, inhibitor transduced by FSD250D
Description: Stock solutions of cargoes were prepared as follows: Gant61 stock (20 mM in DMSO); HPI4 stock (40 mM in DMSO); Itraconazole stock (4.8 mM (4 mg/mL) in DMSO); Arsenic trioxide (ATO) stock (40 mM in H2O). Peptide shuttle agent (5 μM) and Hedgehog pathway inhibitor (100 μM) were mixed and volume was completed to 50 μL with PBS.
Hedgehog signaling pathway Gli Reporter NIH 3T3 cells were cultured in DMEM containing 10% calf serum. Cells were trypsinized, centrifuged and resuspended at 10 million cells/mL in PBS. 50 μL of cells (500 000 cells/well) were distributed in a round bottom non-treated 96-well plate. Resuspended cells were mixed with a delivery mix containing the peptide shuttle agent (5 μM) and Hedgehog pathway inhibitor (100 μM). Cells were incubated 90 seconds with the delivery mix at room temperature, 200 μL of DMEM containing 10% calf serum (200 μL) was added in each well, and cells were centrifuged (400 g, 4 min.) and washed with 200 μL of PBS. Cells were then resuspended in 200 μL of DMEM and then transferred to a well of a 6-well plate containing 1 mL of DMEM containing 10% calf serum and incubated at 37° C. for 2 hours. The media was gently removed and 1 ml of either control media (Opti-MEM™) or activating media (Opti-MEM with 5 μg/mL mShh) was added to each well. Cells were incubated at 37° C. for 24-30 hours.
For analyses, cells were trypsinized and resuspended in each well with 200 μL of Opti-MEM™, and then split equally to two wells of a round bottom 96-well plate. Viability was assessed using flow cytometry analysis and ONE-Step Luciferase assay was used to measure luminescence following manufacturer's instructions.
Briefly, the NIH3T3 Gli-luciferase reporter cell line is designed to monitor the activity of the HedgeHog signaling pathway and contains the firefly luciferase gene under the control of Gli responsive elements stably integrated into NIH3T3 cells. As shown in FIG. 3 and Table 1, exposure of the NIH3T3 Gli-luciferase reporter cells to recombinant mouse Sonic HedgeHog protein as a positive control (“Ctrl+mShh”) results in an increase in luminescence intensity that is not observed in the negative control cells which were not exposed to mShh (“Ctrl−mShh”).

HedgeHog pathway = experiment: Hedgehog pathway inhibitor transduction in vivo, depilated mouse hair regrowth; parameters: species or system C57BL6 mice; details: 100 μM inhibitor, topical on depilated skin, in the presence of FSD250D vs in its absence, 10 days post-treatment
sodium channel Nav1.7 = molecular target: T1, sodium channel Nav1.7 (Homo sapiens, UniProt Q15858); experiment: QX-314 delivery, whole-cell patch-clamp of HEK293 cells stably expressing Nav1.7; format: cell-based
T1 construct: expressed in transfected cells
T1 sequence (Q15858 whole entry): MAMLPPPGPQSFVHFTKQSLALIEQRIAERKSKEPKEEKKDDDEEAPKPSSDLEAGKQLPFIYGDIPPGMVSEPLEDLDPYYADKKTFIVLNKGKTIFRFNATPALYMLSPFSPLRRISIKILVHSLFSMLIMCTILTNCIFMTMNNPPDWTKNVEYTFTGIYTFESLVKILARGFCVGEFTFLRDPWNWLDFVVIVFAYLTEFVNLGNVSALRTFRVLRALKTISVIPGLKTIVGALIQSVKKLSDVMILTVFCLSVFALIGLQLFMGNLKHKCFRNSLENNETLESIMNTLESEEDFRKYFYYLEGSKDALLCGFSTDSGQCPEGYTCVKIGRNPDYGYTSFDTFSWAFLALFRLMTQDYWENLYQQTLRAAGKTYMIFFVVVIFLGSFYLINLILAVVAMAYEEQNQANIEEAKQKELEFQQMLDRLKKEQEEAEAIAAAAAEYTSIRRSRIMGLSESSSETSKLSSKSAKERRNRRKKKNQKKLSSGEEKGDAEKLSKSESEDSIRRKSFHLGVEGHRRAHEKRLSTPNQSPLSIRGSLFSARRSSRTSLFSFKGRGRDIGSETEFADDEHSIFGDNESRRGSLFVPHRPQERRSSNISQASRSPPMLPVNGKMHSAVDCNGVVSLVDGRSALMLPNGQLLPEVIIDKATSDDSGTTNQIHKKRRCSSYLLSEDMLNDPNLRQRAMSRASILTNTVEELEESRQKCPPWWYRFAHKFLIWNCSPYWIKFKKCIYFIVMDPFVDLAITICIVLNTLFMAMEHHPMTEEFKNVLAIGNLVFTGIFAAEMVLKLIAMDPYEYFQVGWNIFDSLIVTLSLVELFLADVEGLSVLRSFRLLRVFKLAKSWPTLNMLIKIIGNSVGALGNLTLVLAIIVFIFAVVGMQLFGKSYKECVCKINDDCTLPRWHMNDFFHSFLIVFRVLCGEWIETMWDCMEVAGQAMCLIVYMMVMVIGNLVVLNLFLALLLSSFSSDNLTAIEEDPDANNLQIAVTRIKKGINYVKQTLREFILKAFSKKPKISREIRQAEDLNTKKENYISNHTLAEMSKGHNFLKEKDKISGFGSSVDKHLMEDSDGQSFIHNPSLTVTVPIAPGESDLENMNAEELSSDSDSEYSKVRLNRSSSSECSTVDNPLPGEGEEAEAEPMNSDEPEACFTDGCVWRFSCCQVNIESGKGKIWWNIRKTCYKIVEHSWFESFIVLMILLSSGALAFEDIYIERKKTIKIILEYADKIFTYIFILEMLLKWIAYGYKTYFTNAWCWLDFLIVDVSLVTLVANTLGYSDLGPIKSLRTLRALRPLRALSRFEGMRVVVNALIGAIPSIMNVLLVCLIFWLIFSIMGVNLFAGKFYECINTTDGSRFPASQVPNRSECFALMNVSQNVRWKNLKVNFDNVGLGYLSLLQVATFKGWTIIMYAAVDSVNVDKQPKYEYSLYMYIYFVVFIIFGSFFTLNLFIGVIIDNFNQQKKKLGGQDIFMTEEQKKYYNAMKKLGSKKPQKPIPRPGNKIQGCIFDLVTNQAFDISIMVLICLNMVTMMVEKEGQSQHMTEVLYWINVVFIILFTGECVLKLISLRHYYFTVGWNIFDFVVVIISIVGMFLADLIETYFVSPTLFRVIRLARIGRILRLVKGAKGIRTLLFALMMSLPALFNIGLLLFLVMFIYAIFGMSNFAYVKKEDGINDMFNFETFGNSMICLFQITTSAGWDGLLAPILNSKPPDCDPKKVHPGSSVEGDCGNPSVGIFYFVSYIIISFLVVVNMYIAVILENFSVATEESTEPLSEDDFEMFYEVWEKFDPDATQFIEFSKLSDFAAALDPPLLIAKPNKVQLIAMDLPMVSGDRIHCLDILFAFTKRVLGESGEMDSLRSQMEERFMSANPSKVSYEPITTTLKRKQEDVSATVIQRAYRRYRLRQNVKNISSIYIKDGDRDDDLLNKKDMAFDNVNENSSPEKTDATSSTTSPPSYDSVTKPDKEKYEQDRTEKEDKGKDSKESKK
Description: Cell culture. HEK293 cells stably expressing Nav1.7 were grown in Dulbecco's minimal essential medium (DMEM, Gibco BRL Life Technologies) supplemented with fetal bovine serum (FBS, 10%), L-glutamine (2 mM), penicillin (100 U/mL), streptomycin ([…]). The cells were incubated at 37° C. in a 5% CO2 humidified atmosphere.
(§1) Delivery. Cells were seeded 24 hours prior to the experiment in 24-well plate. Cells were washed twice with PBS. A solution containing 1 mM of QX-314, 5 μM of FSD194 and 15 μM of GFP-NLS protein was applied to cells for 90 seconds and removed by aspiration. Control was performed using 5 μM of FSD194 or of 2.5 mM QX-314, in presence of GFP-NLS. Cells were washed with 800 μL of DMEM containing 10% FBS and transferred in the recording solution to perform the electrophysiology. GFP-positive cells were determined by microscopy and then selected for patch-clamp analysis.
Electrophysiology. Frequency protocol with QX-314 was recorded within 30 s after the whole-cell configuration was formed. Frequency protocol consists of a pulse of 10 ms at −20 mV from a holding potential of −140 mV at 10 Hz. Whole-cell Na+ currents in HEK293 cells were recorded at room temperature using an Axopatch 200B with the whole-cell configuration of the patch-clamp technique (Molecular Devices). pClamp v10.0 was used for the pulse stimulations and recordings (Molecular Devices). Currents were filtered at 5 kHz, digitized at 100 kHz using a Digidata 1550 AD converter (Molecular devices), and stored on a computer for subsequent analyses. Series resistance was compensated by 70-80%. When needed, linear leak current artifacts were removed using on-line leak subtraction. Fire-polished low-resistance electrodes (2MS2) were pulled from 8161 glass (Corning).
Recording Solutions. Bath solution: 35 mM NaCl, 115 mM NMDG, 2 mM KCl, 1.5 mM CaCl2, 1.0 mM MgCl2, 10 mM glucose, 10 mM HEPES. The pH was adjusted to pH 7.3 with 1 M NaOH. Pipette solution: 35 mM NaCl, 105 mM CsF, 10 mM EGTA, and 10 mM HEPES. The pH was adjusted to pH 7.4 with 1 M CsOH.

HeLa cells = experiment: Propidium iodide (PI) transduction in HeLa cells, flow cytometry; format: cell-based, Human; details: for delivery / transduction of PI: shuttle or control peptide 10 μM, PI 10 μg/mL, 1 minute, 2 hours after delivery
Description: HeLa cells were plated (20 000 cells/well) in a 96 well-dish the day prior the experiment. Each delivery mix comprising a synthetic peptide shuttle agent (10 μM) and the propidium iodide (PI) (10 μg/mL) or the GFP-NLS (10 μM) were prepared and completed to 50 μL with phosphate-buffered saline (PBS). Cells were washed once with PBS and the Shuttle/PI or Shuttle/GFP-NLS added on cells for one minute. Then 100 μL DMEM containing 10% FBS was added to the mix and removed. Cells were washed once with PBS and incubated in DMEM containing 10% FBS. Cells were analyzed after 2-hour incubation by flow cytometry. For the condition “FS then PI”, only the synthetic peptide shuttle agent (10 μM) was added on HeLa cells for 1 minute and one hour later PI (10 μg/mL) was added for one minute following the same washing step. Cells were analyzed one hour after PI or GFP-NLS treatment.
HeLa cells were cultured as described in Example 1.3 and subjected to the PI transduction protocol as described in Example 1.4, with the proteinaceous cargo GFP-NLS being transduced separately as a control in some experiments. Results were acquired by flow cytometry two hours after delivery and expressed as percentages of fluorescent cells (% PI+ cells or % GFP+ cells), as shown in FIGS. 1A-1D and as summarized in the table shown in FIG. 2.
To evaluate the suitability of PI as a “surrogate” cargo for novel shuttle agents, a proprietary library of over 300 candidate peptide shuttle agents was screened in parallel for both PI and GFP-NLS transduction activity in HeLa cells using flow cytometry as generally described in Example 1.4. Aside from the concentrations of the cargoes (i.e., 10 μg/mL for PI vs 10 μM for GFP-NLS), the transduction protocols were otherwise the same.
Due to the large number of peptides screened, negative controls were performed in parallel for each experimental batch and included a “no treatment” (NT) control in which the cells were not exposed to shuttle peptide or cargo, as well as a “cargo alone” control in which cells were exposed to the cargo in the absence of shuttle agent. Results are shown in FIGS. 6 and 7, in which “transduction efficiency” refers to the percentage of all viable cells that are positive for the cargo (PI or GFP-NLS). “Mean Delivery score” provides a further indication of the total amount of cargo that was delivered per cell, amongst all cargo-positive cells. Mean PI or GFP-NLS delivery score was calculated by multiplying the mean fluorescence intensity (of at least duplicate samples) measured for the viable PI+ or GFP+ cells by the mean percentage of viable PI+ or GFP+ cells, divided by 100,000 for GFP delivery or by 10,000 for PI delivery. […]

HEK293 cells = experiment: GFP-NLS co-transduction in HEK293 cells, microscopy; format: cell-based, Human; details: 5 μM FSD194+15 μM GFP-NLS, with or without QX-314
Description: as §1

`CN(C)c1ccccc1CN1CCCN(Cc2ccccc2N(C)C)C1c1ccncc1` [Gant61] was tested. Which Mean luminescence intensity ([1]; +FSD250D (5 μM)) did it give?
Its Mean luminescence intensity is 4216.

What about the “cellular luminescence intensity in the presence of FSD250D as compared to in the absence of FSD250D” value [1] of the same compound?
Its value is “significantly reduced cellular luminescence intensity”.

What about the Mean luminescence intensity ([1]; −FSD250D) of the same compound?
Its Mean luminescence intensity is 6770.

And the hair regrowth (HedgeHog pathway)?
Its hair regrowth is “delayed hair regrowth”.

How did the Mean luminescence intensity ([1]; +FSD250D (5 μM)) turn out when `N#C/C(C(=O)c1ccc(Cl)cc1Cl)=C1\NC(=O)c2ccccc2N1` [HPI-4] was run?
Its Mean luminescence intensity is 1993.

And the “cellular luminescence intensity in the presence of FSD250D as compared to in the absence of FSD250D” value [1]?
Its value is “significantly reduced cellular luminescence intensity”.

And the Mean luminescence intensity ([1]; −FSD250D)?
The Mean luminescence intensity was 6370.

For `CCC(C)n1ncn(-c2ccc(N3CCN(c4ccc(OCC5COC(Cn6cncn6)(c6ccc(Cl)cc6Cl)O5)cc4)CC3)cc2)c1=O` (stereo not drawn) [Itraconazole], which Mean luminescence intensity ([1]; +FSD250D (5 μM)) is on record?
Its Mean luminescence intensity is 1519.

And the Mean luminescence intensity ([1]; −FSD250D)?
The Mean luminescence intensity was 5612.

`CC[N+](CC)(CC)CC(=O)Nc1c(C)cccc1C.[Br-]` [QX-314, Lidocaine N-ethyl bromide] was tested. Which “evoked whole-cell Na+ current amplitude” value (sodium channel Nav1.7; 1 mM QX-314+15 μM GFP-NLS+5 μM FSD194, 90 seconds, 10 ms pulse at 10 Hz) did it give?
Its value is “Reduction of the current amplitude”.

What about the “evoked whole-cell Na+ current amplitude” value (sodium channel Nav1.7; 2.5 mM QX-314+15 μM GFP-NLS, absence of FSD194) of the same compound?
Its value is “current amplitude reduction was not observed”.

How did the Mean luminescence intensity ([1]; +FSD250D (5 μM)) turn out when Arsenic trioxide [ATO] was run?
Its Mean luminescence intensity is 4686.

And the “cellular luminescence intensity in the presence of FSD250D as compared to in the absence of FSD250D” value [1]?
The value was “significantly reduced cellular luminescence intensity”.

What about the Mean luminescence intensity ([1]; −FSD250D) of the same compound?
The Mean luminescence intensity was 5967.

With “FSD174 Scramble: negative control peptide, same amino acid composition as FSD174, order changed (LGRSGRIKIGGWSALASRARQARGLKIWTQGRL; FSD174 Scramble)” as the compound, how does the “PI transduction efficiency relative to "cargo alone" negative control” value (HeLa cells; negative control peptide, data not shown) read?
Its value is “lower transduction efficiencies for PI”.

With “FSD194: rationally-designed synthetic peptide shuttle agent (KWKLLKLWSRLLKLWGGSGGGSRRLKAKRAKA; FSD194)” as the compound, how does the GFP-NLS-positive cells (HEK293 cells) read?
Its GFP-NLS-positive cells is “GFP-NLS-positive cells were identified”.

And the “evoked whole-cell Na+ current amplitude” value (sodium channel Nav1.7; 15 μM GFP-NLS+5 μM FSD194, without QX-314)?
Its value is “current amplitude reduction was not observed”.

With “FSD250D: same amino acid sequence as FSD250, except that all the amino acids are D-amino acids ([dK][dW][dK][dL][dL][dK][dL][dW][dS][dR][dL][dL][dK][dL][dW]GG[dS]GGG[dS][dA][dR][dA][dA][dR][dQ][dA][dR])” as the compound, how does the “effect of shuttle agent alone on luminescence intensity following mShh stimulation” value ([1]; FSD250D together with mShh, no inhibitor, data not shown) read?
The value was “had no effect on cellular luminescence intensity”.

Which “delivery / transduction of PI” value (HeLa cells) does the source give for “FSD268 Cyclic Amide: cyclic peptide possessing an amide bond between its C and N termini (KWKLLKLWSRLLKLWGGSGGGSQARAQARQAR; head-to-tail cyclic amide; FSD268 Cyclic Amide; (1)..(32) Cyclic peptide covalent link between K1 and R32)” here?
Its value is “increased the delivery of PI”.

Which “delivery / transduction of PI” value (HeLa cells) does the source give for “FSD268 Cyclic Disulfide: cyclic peptide with a disulfide bridge between two flanking cysteines added in N and C terminal positions (CKWKLLKLWSRLLKLWGGSGGGSQARAQARQARC; disulfide 1-34)” here?
The value was “increased the delivery of PI”.

How did the “delivery / transduction of PI” value (HeLa cells) turn out when “FSD268: rationally-designed synthetic peptide shuttle agent (KWKLLKLWSRLLKLWGGSGGGSQARAQARQAR; FSD268)” was run?
The value was “increased the delivery of PI”.
